Compound: C1=CC2=C(C=C(C(=C2N=C1)O)N=NC3=CC4=C(C=C3)C=C(C=C4)S(=O)(=O)O)S(=O)(=O)O + CC1(C)CCC(c2ccc(Cl)cc2)=C(CN2CCN(c3ccc(C(=O)NS(=O)(=O)c4ccc(N[C@H](CCN5CCOCC5)CSc5ccccc5)c(S(=O)(=O)C(F)(F)F)c4)cc3)CC2)C1 [Navitoclax] (partner 0.5 µM)
Test: relative viability (nuclei count vs DMSO), 5 days (fraction); higher = more cells survive
Conditions: first compound 8 µM
Outline: (§1)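 Values are medians from duplicate plates. Each reflects relative viability, defined as the nuclei count of treated wells over that of vehicle wells. Lung cancer cell lines in 1536-well plates were pin-tool dosed one day after seeding with one drug alone or with a fixed anchor-drug dose plus five library-drug doses (not always all listed) in √10 steps, then fixed, stained and imaged at 4× after 5 days.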

Cell Line | relative viability
NCI-H2228 | 0.874
NCI-H1355 | 0.96
NCI-H3122 | 1.04
NCI-H1437 | 1.08
NCI-H1755 | 0.726
NCI-H2023 | 0.973
HCC-15 | 0.705
NCI-H1793 | 0.557
PC-14 | 1.01
EKVX | 1.02
LC-2-ad | 0.521
NCI-H1944 | 0.991
NCI-H1975 | 0.979
RERF-LC-KJ | 0.877
PC-3 [JPC-3] | 0.725

Compound: O=C(NC1CCNCC1)c1n[nH]cc1NC(=O)c1c(Cl)cccc1Cl [AT-7519] + Nc1nc2[nH]cc(CCc3ccc(C(=O)N[C@@H](CCC(=O)O)C(=O)O)cc3)c2c(=O)[nH]1 [Pemetrexed] (partner 0.2 µM)
Test: as above
Conditions: first compound 0.01 µM
Outline: as §1

Cell Line | relative viability
HCC-78 | 0.916
NCI-H322M | 0.563
LCLC-97TM1 | 0.182
NCI-H2009 | 1.11
A-427 | 1.06
NCI-H441 | 0.283
NCI-H1734 | 0.426
NCI-H460 | 0.0626
NCI-H2347 | 0.462
SK-LU-1 | 0.99
NCI-H1395 | 0.847
201T | 0.343
NCI-H1915 | 0.5
HCC-827 | 0.301
LXF-289 | 0.866
NCI-H23 | 0.563
NCI-H647 | 0.142
CAL-12T | 1.23

Cell Line | relative viability
NCI-H1651 | 0.677
EPLC-272H | 0.268
NCI-H2228 | 0.404
NCI-H1355 | 1.04
NCI-H3122 | 0.215
NCI-H1437 | 0.325
NCI-H1755 | 0.413
NCI-H2023 | 0.203
HCC-15 | 0.217
NCI-H1793 | 0.752
PC-14 | 0.138
EKVX | 0.423
LC-2-ad | 0.263
NCI-H1944 | 0.633
NCI-H1975 | 0.304
RERF-LC-KJ | 0.448
PC-3 [JPC-3] | 1.05

Same assay, conditions: first compound 0.03162 µM

Cell Line | relative viability
HCC-78 | 0.885
NCI-H322M | 0.623
LCLC-97TM1 | 0.156
NCI-H2009 | 0.932
A-427 | 0.965
NCI-H441 | 0.266
NCI-H1734 | 0.435
NCI-H460 | 0.0564
NCI-H2347 | 0.367
SK-LU-1 | 1
NCI-H1395 | 0.896
201T | 0.311
NCI-H1915 | 0.494
HCC-827 | 0.247
LXF-289 | 0.905
NCI-H23 | 0.734
NCI-H647 | 0.159
CAL-12T | 1.11

Cell Line | relative viability
NCI-H1651 | 0.562
EPLC-272H | 0.328
NCI-H2228 | 0.395
NCI-H1355 | 1.03
NCI-H3122 | 0.209
NCI-H1437 | 0.326
NCI-H1755 | 0.461
NCI-H2023 | 0.233
HCC-15 | 0.225
NCI-H1793 | 0.882
PC-14 | 0.135
EKVX | 0.342
LC-2-ad | 0.276
NCI-H1944 | 0.593
NCI-H1975 | 0.302
RERF-LC-KJ | 0.473
PC-3 [JPC-3] | 1.1

Same assay, conditions: first compound 0.3162 µM

Cell Line | relative viability
HCC-78 | 0.88
NCI-H322M | 0.469
LCLC-97TM1 | 0.152
NCI-H2009 | 1.08
A-427 | 1.07
NCI-H441 | 0.263
NCI-H1734 | 0.383
NCI-H460 | 0.0558
NCI-H2347 | 0.398
SK-LU-1 | 0.998
NCI-H1395 | 0.899
201T | 0.288
NCI-H1915 | 0.516
HCC-827 | 0.276
LXF-289 | 0.909
NCI-H23 | 0.591
NCI-H647 | 0.177
CAL-12T | 0.584

Cell Line | relative viability
NCI-H1651 | 0.556
EPLC-272H | 0.303
NCI-H2228 | 0.313
NCI-H1355 | 1.06
NCI-H3122 | 0.173
NCI-H1437 | 0.35
NCI-H1755 | 0.566
NCI-H2023 | 0.203
HCC-15 | 0.205
NCI-H1793 | 0.647
PC-14 | 0.118
EKVX | 0.246
LC-2-ad | 0.28
NCI-H1944 | 0.602
NCI-H1975 | 0.306
RERF-LC-KJ | 0.414
PC-3 [JPC-3] | 1.11

Same assay, conditions: first compound 1 µM

Cell Line | relative viability
HCC-78 | 0.884
NCI-H322M | 0.543
LCLC-97TM1 | 0.165
NCI-H2009 | 0.869
A-427 | 1.01
NCI-H441 | 0.198
NCI-H1734 | 0.366
NCI-H460 | 0.0636
NCI-H2347 | 0.453
SK-LU-1 | 0.439
NCI-H1395 | 0.558
201T | 0.331
NCI-H1915 | 0.501
HCC-827 | 0.243
LXF-289 | 0.992
NCI-H23 | 0.494
NCI-H647 | 0.129
CAL-12T | 0.147

Cell Line | relative viability
NCI-H1651 | 0.744
EPLC-272H | 0.0761
NCI-H2228 | 0.265
NCI-H1355 | 0.974
NCI-H3122 | 0.176
NCI-H1437 | 0.229
NCI-H1755 | 0.442
NCI-H2023 | 0.111
HCC-15 | 0.204
NCI-H1793 | 0.693
PC-14 | 0.103
EKVX | 0.463
LC-2-ad | 0.268
NCI-H1944 | 0.511
NCI-H1975 | 0.181
RERF-LC-KJ | 0.303
PC-3 [JPC-3] | 1.47

Compound: O=C(NC1CCNCC1)c1n[nH]cc1NC(=O)c1c(Cl)cccc1Cl [AT-7519] + CC1(C)CCC(c2ccc(Cl)cc2)=C(CN2CCN(c3ccc(C(=O)NS(=O)(=O)c4ccc(N[C@H](CCN5CCOCC5)CSc5ccccc5)c(S(=O)(=O)C(F)(F)F)c4)cc3)CC2)C1 [Navitoclax] (partner 0.5 µM)
Test: as above
Conditions: first compound 0.01 µM
Outline: as §1

Cell Line | relative viability
HCC-78 | 0.743
NCI-H322M | 1.07
LCLC-97TM1 | 0.637
NCI-H2009 | 1.19
A-427 | 0.973
NCI-H441 | 0.592
NCI-H1734 | 0.893
NCI-H460 | 0.965
NCI-H2347 | 0.741
SK-LU-1 | 0.516
NCI-H1395 | 1.62
201T | 1.19
NCI-H1915 | 0.817
HCC-827 | 0.991
LXF-289 | 0.984
NCI-H23 | 0.858
NCI-H647 | 1.11
CAL-12T | 1.21

Cell Line | relative viability
NCI-H1651 | 0.983
EPLC-272H | 1.13
NCI-H2228 | 1.08
NCI-H1355 | 0.984
NCI-H3122 | 1.02
NCI-H1437 | 1.03
NCI-H1755 | 1.05
NCI-H2023 | 1.1
HCC-15 | 0.632
NCI-H1793 | 0.352
PC-14 | 0.994
EKVX | 0.772
LC-2-ad | 0.312
NCI-H1944 | 0.988
NCI-H1975 | 1.01
RERF-LC-KJ | 1.04
PC-3 [JPC-3] | 0.754

Same assay, conditions: first compound 0.03162 µM

Cell Line | relative viability
HCC-78 | 0.664
NCI-H322M | 1.16
LCLC-97TM1 | 0.31
NCI-H2009 | 1.19
A-427 | 0.899
NCI-H441 | 0.628
NCI-H1734 | 0.758
NCI-H460 | 1
NCI-H2347 | 0.675
SK-LU-1 | 0.848
NCI-H1395 | 1.17
201T | 1.17
NCI-H1915 | 0.83
HCC-827 | 1.1
LXF-289 | 1.07
NCI-H23 | 0.622
NCI-H647 | 1.19
CAL-12T | 1.05

Cell Line | relative viability
NCI-H1651 | 1.08
EPLC-272H | 1.01
NCI-H2228 | 0.72
NCI-H1355 | 0.873
NCI-H3122 | 1.07
NCI-H1437 | 1.08
NCI-H1755 | 0.983
NCI-H2023 | 0.938
HCC-15 | 0.639
NCI-H1793 | 0.416
PC-14 | 1.03
EKVX | 0.881
LC-2-ad | 0.487
NCI-H1944 | 1.06
NCI-H1975 | 1.02
RERF-LC-KJ | 0.981
PC-3 [JPC-3] | 0.714

Same assay, conditions: first compound 0.3162 µM

Cell Line | relative viability
HCC-78 | 0.901
NCI-H322M | 1.09
LCLC-97TM1 | 0.461
NCI-H2009 | 1.19
A-427 | 1.01
NCI-H441 | 0.571
NCI-H1734 | 0.686
NCI-H460 | 0.932
NCI-H2347 | 0.745
SK-LU-1 | 0.882
NCI-H1395 | 1.03
201T | 1.27
NCI-H1915 | 0.758
HCC-827 | 0.996
LXF-289 | 1
NCI-H23 | 1.02
NCI-H647 | 1.12
CAL-12T | 0.855

Cell Line | relative viability
NCI-H1651 | 0.997
EPLC-272H | 1.31
NCI-H2228 | 1.04
NCI-H1355 | 1.09
NCI-H3122 | 1.06
NCI-H1437 | 1.1
NCI-H1755 | 1.02
NCI-H2023 | 0.847
HCC-15 | 0.647
NCI-H1793 | 0.313
PC-14 | 0.952
EKVX | 0.923
LC-2-ad | 0.367
NCI-H1944 | 1.14
NCI-H1975 | 0.87
RERF-LC-KJ | 0.848
PC-3 [JPC-3] | 0.867

Same assay, conditions: first compound 1 µM

Cell Line | relative viability
HCC-78 | 0.685
NCI-H322M | 1.07
LCLC-97TM1 | 0.398
NCI-H2009 | 0.96
A-427 | 0.599
NCI-H441 | 0.412
NCI-H1734 | 0.452
NCI-H460 | 0.0202
NCI-H2347 | 0.59
SK-LU-1 | 0.189
NCI-H1395 | 0.831
201T | 1.25
NCI-H1915 | 0.785
HCC-827 | 0.995
LXF-289 | 0.917
NCI-H23 | 0.461
NCI-H647 | 0.762
CAL-12T | 0.128

Cell Line | relative viability
NCI-H1651 | 0.882
EPLC-272H | 0.972
NCI-H2228 | 0.437
NCI-H1355 | 0.865
NCI-H3122 | 0.558
NCI-H1437 | 0.455
NCI-H1755 | 0.986
NCI-H2023 | 0.323
HCC-15 | 0.351
NCI-H1793 | 0.365
PC-14 | 0.719
EKVX | 0.876
LC-2-ad | 0.214
NCI-H1944 | 0.982
NCI-H1975 | 0.236
RERF-LC-KJ | 0.408
PC-3 [JPC-3] | 0.934
